# Data as given in US10087173B2, “Substituted aminothiazoles as inhibitors of cancers, including hepatocellular carcinoma, and as inhibitors of hepatitis virus replication” (BARUCH S. BLUMBERG INSTITUTE, priority 2011, dated 2018).
# Like-named read-outs stand apart in the source and are kept apart here.
# Columns and labels:
# Type in all cases: cell-based
# [1] = MTT cell viability assay, PH5CH cells, 72 h; settings: human, immortalized normal hepatocytes PH5CH, 0.016-50.0 μM tested
# Description: (§1) Huh-7 cells and derived from hepatocellular carcinoma cells, and were donated by Dr. Xuanyong Lu, (Drexel University College of Medicine, Doylestown, Pa.). THLE-2 were purchased from American Type Culture Collection (Manassas, Va.). PH5CH were donated by Dr. Masayuki Noguchi (University of Tsukuba, Ibaraki, Japan). THLE-2 and PH5CH have been immortalized through stable transfection of the SV40 large T antigen in normal hepatocytes, and are thus cell lines that are representative of normal hepatocytes rather than HCC cells. THLE2 have been confirmed to not form tumors in athymic mice. All cell lines were cultured and maintained in 5% CO2 at 37° C. Huh-7 were maintained in the culture media DMEM/F12 (Dulbecco's Modified Eagle Medium) with 10% Fetal bovine serum (FBS), 100 μg/mL penicillin, 100 units/mL streptomycin, and 50 μg/mL normocin. THLE-2 and PH5CH were maintained in the culture media Brochial Epithelial Growth Media (BEGM) with 10% FBS, 100 μg/mL penicillin, 100 units/mL streptomycin, with the following additives form the prepackaged kit: Bovine pituitary extract (BPE), insulin, hydrocortisone, retinoic acid, transferrin, triiodothyronine, supplemented with 5 ng/ml human epidermal growth factor and 70 ng/ml phosphoethanolamine (Lonza Walkersville Inc., Walkersville, Md.).
# (§2) Huh7 cells were plated on 96-well plates at 2.0×10^4 cells per well to permit grow in the presence of compounds of the disclosure. Compounds of the disclosure were prediluted and transferred to cell plates by automated liquid handling. Cells were incubated with compounds of the disclosure for 72 hours, after which culture growth and viability were assessed by addition of 50 μg/mL 3-(4,5-Dimethyl-2-thiazolyl)-2,5-diphenyl-2H-tetrazolium bromide (MTT) incubation for 4 hours at 37° C. Solubilization buffer (0.01M HCl, 10% SDS) was added followed by incubation at 37° C. overnight. Absorbance was measured at 570 nm (reference 630 nm). Compound of the disclosure were tested in Huh7, THLE-2 and PH5CH, over eight-point dilutions in half-log steps, testing 50.0, 16.6, 5.0, 1.66, 0.5, 0.166, 0.05, and 0.016 μM in 0.5% DMSO, with each concentration in duplicate wells. […] Each compound was tested from 2 to 7 times in separate assay trials.
# (§3) Selectivity of toxicity in HCC-derived cells over normal liver-derived cells is important for the purposes of developing a therapy that specifically targets the cancer with low toxicity for […]. The Selective Index (SI) is the ratio of CC50 in normal cells (THLE2 or PH5CH) over the CC50 in the liver cancer derived cells; thus, the higher the number, the lower the potential toxicity at an efficacious dose.
# [2] = MTT cell viability assay, THLE2 cells, 72 h; settings: human, immortalized normal hepatocytes THLE2, 72 hours, 0.016-50.0 μM tested
# Description: as §1, with “THLE2 have been confirmed to not form tumors in athymic mice.” left out
# as §2, §3
# Huh7 cells = experiment: MTT cell viability assay, Huh7 cells, 72 h; settings: read-out: Huh7 CC50
# Description: as §1, §2
# PH5CH cells = experiment: MTT cell viability assay, PH5CH cells, 72 h; settings: immortalized normal hepatocytes PH5CH, 0.016-50.0 μM tested
# Description: as §1, §2, §3
# THLE2 cells = experiment: MTT cell viability assay, THLE2 cells, 72 h; settings: immortalized normal hepatocytes THLE2, 72 hours, 0.016-50.0 μM tested
# Description: as §1, with “THLE2 have been confirmed to not form tumors in athymic mice.” left out
# as §2, §3
# [3] = Homo sapiens, Huh-7, hepatocellular carcinoma derived Huh7 cells, 72 hours, MTT, 0.016-50.0 μM tested
Structure (SMILES),CC50 at 72 h [1] [µM],CC50 at 72 h [2] [µM],CC50 (Huh7 cells; [3]) [µM],"CC50 (Huh7 cells; Homo sapiens, Huh-7, 72 h) [µM]",CC50 (PH5CH cells) [µM],CC50 (THLE2 cells) [µM],"CC50 (Huh7 cells; hepatocellular carcinoma derived Huh7 cells, 72 hours, MTT, 0.016-50.0 μM tested) [µM]"
c1ccc(-c2csc(Nc3ncccn3)n2)nc1 [Entry 1],≥ 50,40,1.39,–,–,–,–
c1ccc(-c2csc(Nc3ncccn3)n2)cc1 [Entry 3],–,9.16,6.43,–,–,–,–
c1cnc(Nc2nc(-c3cccnc3)cs2)nc1 [Entry 4],–,8.66,6.3,–,–,–,–
c1cnc(Nc2nc(-c3ccncc3)cs2)nc1 [Entry 5],–,48.5,14.2,–,–,–,–
c1ccc(Nc2nc(-c3ccccn3)cs2)cc1 [Entry 6],–,–,6.53,–,–,–,–
c1ccc(Nc2nc(-c3ccccc3)cs2)cc1 [Entry 7],–,21.1,10.3,–,–,–,–
Cc1ccnc(-c2csc(Nc3ncccn3)n2)c1 [Entry 8],34,14,0.563,–,–,–,–
Brc1sc(Nc2ncccn2)nc1-c1ccccn1 [Entry 9],–,29.9,2.53,–,–,–,–
Brc1cccc(-c2csc(Nc3ncccn3)n2)n1 [Entry 10],–,9.75,7.82,–,–,–,–
c1ccc(-c2csc(Nc3cnccn3)n2)nc1 [Entry 11],–,0.539,5,–,–,–,–
c1ccc(-c2csc(Nc3ccncn3)n2)nc1 [Entry 12],–,4.47,3.05,–,–,–,–
Clc1cnc(Nc2nc(-c3ccccn3)cs2)nc1 [Entry 13],–,≥ 50,35,–,–,–,–
Brc1cnc(Nc2nc(-c3ccccn3)cs2)nc1 [Entry 14],–,41,31.8,–,–,–,–
CN(c1ncccn1)c1nc(-c2ccccn2)cs1 [Entry 15],49.7,49.1,5.32,–,–,–,–
CC(C)N(c1ncccn1)c1nc(-c2ccccn2)cs1 [Entry 16],≥ 50,≥ 50,–,25.7,–,–,–
OCCN(c1ncccn1)c1nc(-c2ccccn2)cs1 [Entry 17],≥ 50,≥ 50,48.9,–,–,–,–
c1ccc(CN(c2ncccn2)c2nc(-c3ccccn3)cs2)cc1 [Entry 18],46.9,49.8,≥ 50,–,–,–,–
CCOC(=O)c1sc(Nc2ncccn2)nc1-c1ccccn1 [Entry 19],44,38.7,0.362,–,–,–,–
OCc1sc(Nc2ncccn2)nc1-c1ccccn1 [Entry 20],46.9,31.1,11.3,–,–,–,–
CCc1sc(Nc2ncccn2)nc1-c1ccccn1 [Entry 21],44.1,24.7,15.4,–,–,–,–
Cc1sc(Nc2ncccn2)nc1-c1ccccn1 [Entry 22],42,42.9,5.92,–,–,–,–
Cc1ccc2nc(Nc3nc(-c4ccccn4)cs3)sc2c1 [Entry 23],3.97,3.96,4.92,–,–,–,–
CC(C)c1sc(Nc2ncccn2)nc1-c1ccccn1 [Entry 24],≥ 50,≥ 50,–,11.3,–,–,–

Structure (SMILES),CC50 at 72 h [1] [µM],CC50 at 72 h [2] [µM],CC50 (Huh7 cells; [3]) [µM],"CC50 (Huh7 cells; Homo sapiens, Huh-7, 72 h) [µM]",CC50 (PH5CH cells) [µM],CC50 (THLE2 cells) [µM],"CC50 (Huh7 cells; hepatocellular carcinoma derived Huh7 cells, 72 hours, MTT, 0.016-50.0 μM tested) [µM]"
CCCCCc1sc(Nc2ncccn2)nc1-c1ccccn1 [Entry 25],≥ 50,≥ 50,25.9,–,–,–,–
Cc1cnc(-c2csc(Nc3ncccn3)n2)c(C)c1 [Entry 27],47.6,2.23,2.74,–,–,–,–
Oc1cccc(-c2csc(Nc3ncccn3)n2)n1 [Entry 28],≥ 50,≥ 50,46.2,–,–,–,–
N#Cc1sc(Nc2ncccn2)nc1-c1ccccn1 [Entry 29],–,–,–,–,≥ 50,≥ 50,≤ 0.016
Cc1ccnc(Nc2nc(-c3ccccn3)cs2)n1 [Entry 30],≥ 50,≥ 50,≥ 50,–,–,–,–
CCOC(=O)c1sc(Nc2nccc(C)n2)nc1-c1ccccn1 [Entry 31],≥ 50,≥ 50,≤ 0.016,–,–,–,–
c1cnc(Nc2nc(-c3ccc4ccccc4n3)cs2)nc1 [Entry 32],≥ 50,8.02,≥ 50,–,–,–,–
c1ccc(-c2nc(Nc3ncccn3)sc2C2CCCCC2)nc1 [Entry 33],≥ 50,3.54,≥ 50,–,–,–,–
FC(F)(F)c1ccnc(Nc2nc(-c3ccccn3)cs2)n1 [Entry 34],≥ 50,37.8,26.6,–,–,–,–
CCOC(=O)c1sc(Nc2ncccn2)nc1-c1cc(C)ccn1 [Entry 35],39.2,37.2,4.72,–,–,–,–
CCOC(=O)c1sc(Nc2ncccn2)nc1-c1cccc(C)n1 [Entry 36],≥ 50,≥ 50,≥ 50,–,–,–,–
O=C(NCc1ccccc1)c1sc(Nc2ncccn2)nc1-c1ccccn1 [Entry 37],31.5,≥ 50,17.7,–,–,–,–
COC(=O)c1sc(Nc2ncccn2)nc1-c1ccccn1 [Entry 38],38.6,29.4,1.25,–,–,–,–
CNC(=O)c1sc(Nc2ncccn2)nc1-c1ccccn1 [Entry 39],2.89,10.3,13,–,–,–,–
CN(Cc1cnc2nc(N)nc(N)c2n1)c1ccc(C(=O)NC(CCC(=O)NCCOCCOCCOCCOCCOCCNC(=O)c2sc(Nc3ncccn3)nc2-c2ccccn2)C(=O)OC(C)(C)C)cc1 (stereo not drawn) [Entry 40],≥ 50,≥ 50,34.8,–,–,–,–
NC(=O)c1sc(Nc2ncccn2)nc1-c1ccccn1 [Entry 41],≥ 50,26.6,≥ 50,–,–,–,–
CC(=O)OCc1sc(Nc2ncccn2)nc1-c1ccccn1 [Entry 42],≥ 50,≥ 50,39.3,–,–,–,–
CCCC(=O)OCc1sc(Nc2ncccn2)nc1-c1ccccn1 [Entry 43],≥ 50,≥ 50,11,–,–,–,–
CC(C)(C)OC(=O)c1sc(N(c2ncccn2)C(C)(C)C)nc1-c1ccccn1 [Entry 44],≥ 50,≥ 50,–,20.5,–,–,–
Oc1cccc(Nc2nc(-c3ccccc3)cs2)c1 [Entry 45],–,≥ 50,8,–,–,–,–
Cc1c(Cl)cccc1Nc1nc(-c2ccccn2)cs1 [Entry 46],–,–,3.5,–,–,–,–
N#Cc1sc(Nc2ncccn2)nc1-c1ccccn1 [Entry 47],≥ 50,≥ 50,≤ 0.016,–,–,–,–
